Earlier results on two compounds are cited in patent US20100136109A1, “SUSTAINED RELEASE” (priority 2007, published 2010).

For orientation: half-life means the time needed for the level to fall by half in the phase considered.

For this data set the following is noted: in vivo.

Turning to `N[C@@H](Cc1cc(I)c(Oc2ccc(O)c(I)c2)c(I)c1)C(=O)O` [Formulation T3, triiodothyronine], the half-life result is “approx 12 hours”.

On to `N[C@@H](Cc1cc(I)c(Oc2cc(I)c(O)c(I)c2)c(I)c1)C(=O)O` [Formulation T4, thyroxine], for which the half-life was 170 h.
